# Results taken from US5140025A, “Thienotricylene for the treatment of bronchial diseases” (BYK Gulden Lomberg Chemische Fabrik GmbH, priority 1987, dated 1992).
# How the values were obtained:
# [1] = test system: acetylcholine-induced bronchospasm; test: Acetylcholine-induced bronchospasm in anaesthetised, spontaneously breathing guinea pigs, intravenous administration; format: in vivo, guinea pig (Pirbright White); settings: for Mean bronchospasmolytic activity, percentage increase of Vmaxe vs control spasm / Mean bronchospasmolytic activity, percentage increase of tidal volume (TV) vs control spasm: 0-60 min; for Mean bronchospasmolytic activity, percentage increase of Vmaxe vs control spasm / Mean bronchospasmolytic activity, percentage increase of tidal volume (TV) vs control spasm / Bronchospasmolytic activity, percentage increase of Vmaxe vs control spasm / Bronchospasmolytic activity, percentage increase of tidal volume (TV) vs control spasm: x±SEM, N=10; for Bronchospasmolytic activity, percentage increase of Vmaxe vs control spasm / Bronchospasmolytic activity, percentage increase of tidal volume (TV) vs control spasm: at 60 min
# Source text: Effect of Intravenously Administered Telenzepine on Acetylchline-Induced Bronchospasms in Anaesthetised, Spontaneously Breathing Guinea Pigs
# Method for simultaneously recording pharmacodynamic or toxic effects on interior sensitive receptors and the respiration of guinea pigs (U. Kilian, E. Muller, E. Ch. Dittmann and J. Hamacher, Arzneim.-Forsch. 28, 1699-1708, 1978).
# Pirbright White, Interfauna (Tuttlingen), 350-450 g, male.
# Ethylurethane 1.2 g/kg i.p. as 12.5% aqueous solution.
# Pneumotachogram: Maximum flow velocities of the respiratory air during expiration (Vmaxe, "peak flow"), tidal volume (TV).
# Acetylcholine as spasmogen, 0.2-0.3 μmol/kg i.v., dissolved in 0.9% NaCl.
# -10 min control spasm, 0 min administration of substance, +2, +10, +20, +30, +60 min test spasms.
# Determination of the effect of telenzepine on the parameters (mean and standard error of mean, n=10) and calculation of the bronchospasmolytic activity from this as percentage inhibition of the acetylcholine-induced decrease of Vmaxe and TV by means of time/effect curves. Computation of a dose/response curve of the mean bronchospasmolytic activity during the observation time (0-60 min) from the areas under the time/effect curves and reading of 1 h ED50 values. Determination of a dose/response curve of the bronchospasmolytic activity at time 60 min and reading ED50 values.
# [2] = target: T1, M2 receptor (cardiac) (Rattus norvegicus, UniProt P10980); test: Receptor affinity, electrically stimulated left atrium of the rat; settings: agonist carbachol, Schild slope normalised to 1.00, read-out: pA2 ± SEM, M2 receptor (cardiac) (converted)
# T1 construct: isolated, left atria of rats (male 250-350 g); from tissue; host or cells: rat left atrium (isolated, male rats 250-350 g)
# T1 sequence (P10980 1-466): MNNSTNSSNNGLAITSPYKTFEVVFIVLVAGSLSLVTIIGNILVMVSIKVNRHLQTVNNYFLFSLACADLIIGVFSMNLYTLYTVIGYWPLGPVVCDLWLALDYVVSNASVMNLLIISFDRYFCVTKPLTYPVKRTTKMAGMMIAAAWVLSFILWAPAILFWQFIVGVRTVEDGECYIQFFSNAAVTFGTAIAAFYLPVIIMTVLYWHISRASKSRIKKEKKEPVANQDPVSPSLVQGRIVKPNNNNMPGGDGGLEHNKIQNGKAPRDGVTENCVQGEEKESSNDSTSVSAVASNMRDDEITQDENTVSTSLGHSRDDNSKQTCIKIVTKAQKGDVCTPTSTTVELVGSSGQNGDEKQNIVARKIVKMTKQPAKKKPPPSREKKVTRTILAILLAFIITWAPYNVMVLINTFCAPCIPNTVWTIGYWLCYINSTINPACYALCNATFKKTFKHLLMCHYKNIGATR
# Source text: The affinity of (±)-4,9-dihydro-3-methyl-4-[(4-methyl-1-piperazinyl)-acetyl]-10H-thieno[3,4-b][1,5]benzodiazepin-10-one (telenzepine, compound 2 in Table 7) and its conformers [(+)-enantiomer=compound 1, (-)-enantiomer=compound 3] to muscarinic M1 (ganglionic type) and M2 (cardiac type) receptors was investigated by the following methods:
# Electrically Stimulated Left Atrium of the Rat (Eltze et al., 1985, Europ. J. Pharmacol. 112, 211-224).
# Isometric contractions (HSE force transducer, K-30; Watanabe Linear Corder Mark 5) of isolated, left atria of rats (male 250-350 g) were recorded in an organ bath (10 ml, Tyrode nutrient solution, 31° C., gassing with carbogen, initial tension of the organs 0.25 g) under electrical stimulation (HSE stimulator; hook-shaped Pt electrodes at the base of the bath and immersed, annular Pt electrodes 1 cm below the water surface of the bath; 7 V, 3 ms, 2 Hz). After an equilibration time of 30 minutes, cumulative dose/response curves of carbachol (10^-8 -10^-6 M, in the presence of the antagonist also up to 10^-5 or 10^-4 M) were recorded simultaneously on 4 organs in each case by the technique described by van Rossum (1963). The substance to be tested was added to the organ baths 20 minutes before application of the carbachol. The pauses between the individual dose/response curves were 30-45 minutes.
# The Tyrode nutrient solution used had the following composition (mM): NaCl 130, KCl 2.0, CaCl2 ·2H2 O 1.8, MgCl2 ·6H2 O 0.98, NaHCO3 12.0, NaH2 PO4 0.42 and glucose monohydrate 5.6. pA2 values (-log of the molar dissociation constants of the competitive antagonist-receptor complex) were determined by linear regression using the Schild plot: pA2 =-log [B/(x-1)], (Arunlakshana and Schild, 1959).
# Table 7 below gives pA2 values of the substances, for which the slope of the regression lines for theoretically competitive antagonism have been normalised to 1.00 (Tallarida et al., 1979).
# [3] = test system: modified Shay rat (lesion formation and acid secretion); test: Antiulcerogenic and secretion-inhibiting action on the modified Shay rat; format: in vivo
# Source text: The excellent gastric protective action and the gastric secretion-inhibiting action of the compound (+)-4,9-dihydro-3-methyl-4-[(4-methyl-1-piperazinyl)-acetyl]-10H-thieno[3,4-b][1,5]benzodiazepin-10-one (=compound 1 in Table 8 below) in comparison with the corresponding (-)-enantiomer (=compound 3) and with the racemate (=compound 2) can be detected in studies on the modified Shay rat. The effect of the stated compounds after intravenous (i.v.) administration on the formation of lesions and the acid secretion in the modified Shay rat is shown in Table 8 below.
# Ulcers are provoked in rats (female, 180-200 g, 4 animals per cage on high grids) which have fasted for 24 hours, by pylorus ligature (under diethyl ether anaesthesia) and oral administration of 100 mg/10 ml/kg of acetylsalicylic acid. The substances to be tested are administered intravenously (1 ml/kg) directly after the pylorus ligature. The wound is closed by means of Michel clamps. 4 hours afterwards, the animals are sacrificed under anaesthesia with ether by Atlas dislocation, and resection of the stomach.
# The stomach is opened along the greater curvature and clamped to a cork sheet, the amount of secreted gastric juice (volume) is determined first and its HCl content (titration with sodium hydroxide solution) being determined subsequently. The number and size (=diameter) of ulcers present are determined using a stereomicroscope, under 10×magnification. The product of severity (according to the following point scale) and number of ulcers serves as an individual lesion index.
# The reduction in the means lesion index of each treated group compared with the control group (=100%) serves as a measure of the antiulcerogenic effect. The ED50 is the dose which reduces the mean lesion index or the HCl secretion by 50% compared with the control.
# [4] = target: M1 receptor (ganglionic); test: Receptor affinity, electrically stimulated rabbit vas deferens in organ bath; settings: vas deferens of the rabbit, agonist McN-A-343, Schild slope normalised to 1.00; listed as Compound 3
# Description: Isometric contractions (HSE force transducer, K-30; tilt and zones, BD-9 chart recorder) of isolated seminal duct sections of rabbits (male, white New Zealand rabbits, 2.5-3.5 kg) were recorded in an organ bath (10 ml, 31° C., gassing with carbogen, initial tension of the organs 0.75 g) under electrical stimultion (HSE stimulator; hook-shaped Pt electrode 1 cm below the water surface of the bath; 30 V, 0.5 ms, 0.05 Hz). After an equilibration time of 30 minutes, cumulative dose/response curves of McN-A-343 (10^-7 -2×10^-6 M) were recorded simultaneously on 8 organ sections in each case (control curves), using the technique described by van Rossum (1963). After 3 control curves, a fixed concentration of the agonist (for example 5×10^-7, 10^-6, 3×10^-6, 10^-5 or 3×10^-5 M) per organ section was applied and, after stabilisation of the effect, increasing concentrations of the agonist to be tested were added. The nutrient solution used had the following composition (mM): NaCl 118, KCl 4.7, CaCl2 ·2H2 O 2.5, MgSO4 ·7H2 O 0.6, KH2 PO 4 1.2, NaHCO3 25.0 and glucose 11.1. In order to block α2 -adrenoreceptors, the nutrient solution additionally contained 10^-6 M yohimbine.
# [5] = at time 60 min after administration, 60 min
# [6] = modified Shay rat, i.v., interpolated dose, 4 h, N=24, listed as 3, 240 min
compound,measurement,setting,value
"Cc1scc2c1N(C(=O)CN1CCN(C)CC1)c1ccccc1NC2=O [(-)-telenzepine, (-)-4,9-dihydro-3-methyl-4-[(4-methyl-1-piperazinyl)-acetyl]-10H-thieno-[3,4-b][1,5]benzodiazepin-10-one]","Mean bronchospasmolytic activity, percentage increase of Vmaxe vs control spasm",[1]; 0.1 μmol/kg i.v.,2 ± 1%
same,"Mean bronchospasmolytic activity, percentage increase of tidal volume (TV) vs control spasm",[1]; 0.1 μmol/kg i.v.,0 ± 2%
same,"Mean bronchospasmolytic activity, percentage increase of Vmaxe vs control spasm",[1]; 1 μmol/kg i.v.,17 ± 3%
same,"Mean bronchospasmolytic activity, percentage increase of tidal volume (TV) vs control spasm",[1]; 1 μmol/kg i.v.,20 ± 5%
same,"Mean bronchospasmolytic activity, percentage increase of Vmaxe vs control spasm",[1]; 5 μmol/kg i.v.,65 ± 4%
same,"Mean bronchospasmolytic activity, percentage increase of tidal volume (TV) vs control spasm",[1]; 5 μmol/kg i.v.,74 ± 4%
same,"Mean bronchospasmolytic activity, percentage increase of Vmaxe vs control spasm",[1]; 10 μmol/kg i.v.,79 ± 2%
same,"Mean bronchospasmolytic activity, percentage increase of tidal volume (TV) vs control spasm",[1]; 10 μmol/kg i.v.,87 ± 2%
same,"Mean bronchospasmolytic activity, percentage increase of Vmaxe vs control spasm",[1]; 30 μmol/kg i.v.,89 ± 3%
same,"Mean bronchospasmolytic activity, percentage increase of tidal volume (TV) vs control spasm",[1]; 30 μmol/kg i.v.,98 ± 3%
same,"Bronchospasmolytic activity, percentage increase of Vmaxe vs control spasm",[1]; 0.1 μmol/kg i.v.,1 ± 1%
same,"Bronchospasmolytic activity, percentage increase of tidal volume (TV) vs control spasm",[1]; 0.1 μmol/kg i.v.,-3 ± 3%
same,"Bronchospasmolytic activity, percentage increase of Vmaxe vs control spasm",[1]; 1 μmol/kg i.v.,18 ± 3%
same,"Bronchospasmolytic activity, percentage increase of tidal volume (TV) vs control spasm",[1]; 1 μmol/kg i.v.,22 ± 5%
same,"Bronchospasmolytic activity, percentage increase of Vmaxe vs control spasm",[1]; 5 μmol/kg i.v.,77 ± 5%
same,"Bronchospasmolytic activity, percentage increase of tidal volume (TV) vs control spasm",[1]; 5 μmol/kg i.v.,88 ± 6%
same,"Bronchospasmolytic activity, percentage increase of Vmaxe vs control spasm",[1]; 10 μmol/kg i.v.,77 ± 3%
same,"Bronchospasmolytic activity, percentage increase of tidal volume (TV) vs control spasm",[1]; 10 μmol/kg i.v.,89 ± 3%
same,"Bronchospasmolytic activity, percentage increase of Vmaxe vs control spasm",[1]; 30 μmol/kg i.v.,88 ± 4%
same,"Bronchospasmolytic activity, percentage increase of tidal volume (TV) vs control spasm",[1]; 30 μmol/kg i.v.,94 ± 3%
same,"ED50 of bronchospasmolytic activity, TV",[1]; [5],2.0 μmol/kg i.v.
same,"ED50 of bronchospasmolytic activity, Vmaxe",[1]; [5],3.2 μmol/kg i.v.
same,onset of efficacy,[1]; doses between 0.1 and 1 μmol/kg i.v.,significantly delayed
same,"ED50 of mean bronchospasmolytic activity, TV","[1]; mean activity 0-60 min, 60 min",2.5 μmol/kg i.v.
same,"ED50 of mean bronchospasmolytic activity, Vmaxe","[1]; mean activity 0-60 min, 60 min",3.1 μmol/kg i.v.
same,Kb,[2],759 nM
same,Inhibition (of acid secretion) following 3 mg,"[3]; 3 mg (i.v.), footnote to the ED50 of HCl secretion",46%
same,"Gastric protective action, reduction of lesion index, about ED50",[3]; [6],~0.65 mg/kg i.v.
same,"Inhibition of acid secretion, reduction of HCl secretion, about ED50",[3]; [6],~3.0 mg/kg i.v.
same,"pA2 ± SEM, M1 receptor (ganglionic)",[4],6.98 ± 0.14
